Experimental data taken from patent US4503065A, “Antiinflammatory 4,5-diaryl 1-2-halo imidazoles” (E. I. Du Pont de Nemours and Company, priority 1982, dated 1985).
Where two headings read alike, the source gives them in different places.

Test system: adjuvant-induced arthritis in rats
Test: Established adjuvant-induced arthritis in rats (paw volume of uninjected left hind paw)
Format: in vivo, Charles River Lewis male rats
Settings: for ED50: read-out: Adjuvant Arthritis ED50 (effective dose at which a 50% decrease from control paw volume is observed); for Percent decrease from control paw volume: 7 days
[1] = at 50 mg/kg daily dose, rat, oral gavage
[2] = at 27 mg/kg daily dose, rat, oral gavage
[3] = rat, oral gavage, daily for 7 days, paw volume one day after last dose, ED50 by visual-fit regression

## CC(=O)Oc1ccccc1C(=O)O [Aspirin, reference compound]
Rattus norvegicus, po
  ED50: 305 mg/kg

## Br.Fc1ccc(-c2nc(Br)[nH]c2-c2ccc(F)cc2)cc1 [Example 1, 2-Bromo-4,5-bis(4-fluorophenyl)-1H-imidazole, Hydrobromide]
[1]
  Percent decrease from control paw volume: 33%

## Br.COc1ccc(-c2nc(Br)[nH]c2-c2ccc(OC)cc2)cc1 [Example 2, 2-Bromo-4,5-bis(4-methoxyphenyl)-1H-imidazole, Hydrobromide]
[2]
  Percent decrease from control paw volume: 46%

## Br.Clc1ccc(-c2nc(Br)[nH]c2-c2ccc(Cl)cc2)cc1 [Example 3, 2-Bromo-4,5-bis(4-chlorophenyl)-1H-imidazole, Hydrobromide]
[3]
  ED50: 5.2 mg/kg

## Br.CSc1ccc(-c2nc(Br)[nH]c2-c2ccc(SC)cc2)cc1 [Example 4, 2-Bromo-4,5-bis(4-methylthiophenyl)-1H-imidazole, Hydrobromide]
[2]
  Percent decrease from control paw volume: 26%

## COc1ccc(-c2nc(Cl)[nH]c2-c2ccc(OC)cc2)cc1.Cl [Example 5, 2-Chloro-4,5-bis(4-methoxyphenyl)-1H-imidazole, Hydrochloride]
[2]
  Percent decrease from control paw volume: 17%

## COc1ccc(-c2nc(Cl)n(C)c2-c2ccc(OC)cc2)cc1 [Example 6, 2-Chloro-4,5-bis(4-methoxyphenyl)-1-methyl-1H-imidazole]
[2]
  Percent decrease from control paw volume: 35%

## CCOC(C)n1c(Cl)nc(-c2ccc(OC)cc2)c1-c1ccc(OC)cc1 (centres unmarked) [Example 7, 2-Chloro-1-(1-ethoxyethyl)-4,5-bis(4-methoxyphenyl)-1H-imidazole]
[1]
  Percent decrease from control paw volume: 37%

## CC(C)Cc1ccc(C(C)C(=O)O)cc1 (centres unmarked) [Ibuprofen, reference compound]
[3]
  ED50: 100 mg/kg

## COc1ccc2c(c1)c(CC(=O)O)c(C)n2C(=O)c1ccc(Cl)cc1 [Indomethacin, reference compound]
Rattus norvegicus, po
  ED50: 0.3 mg/kg

## CCCCC1C(=O)N(c2ccccc2)N(c2ccccc2)C1=O [Phenylbutazone, reference compound]
[3]
  ED50: 10 mg/kg
